In patent US7371877B2, “Glycerol ester derivative” (FUJIFILM Corporation, priority 2002, dated 2008):

Key:
[1] = S9 degradation test; assay type: in vitro ADME, rats; details: rat liver S9 Mix, 5 μg/ml, 37° C., HPLC
Experimental: Six-week old male SD rats (Charles River Japan) were purchased and acclimatized for 1 week. After the acclimatization for 1 week, the rats were weighed and bled by decapitation. The liver was extracted and washed three times with chilled 0.15 M KCl. After the washing, wet weight of the liver was determined, and the liver was added with the three-times weight of chilled 0.15 M KCl and placed in a homogenizer. The liver was homogenized, and the homogenate was centrifuged with cooling at 9000 g for 10 minutes. The supernatant obtained was designated S9 and stored below −80° C.
The stored S9 was thawed in running water. The thawed S9 (0.1 ml) was added with 0.4 M MgCl2 (0.02 ml), 1.65 M KCl (0.02 ml) and 0.2 M Na phosphate buffer (pH 7.4, 0.5 ml), added with glucose-6-phosphate (Oriental Yeast), NADPH (Oriental Yeast) and NADH (Oriental Yeast) so as to give a concentration of 4 μM, and added with distilled water to give a total volume of 1 ml (this solution is referred to as “S9 Mix”). S9 Mix (0.1 ml) was added with a test substance so as to give a concentration of 5 μg/ml and shaken at 37° C. under reciprocal movement. The weight of the test substance (unchanged substance) with passage of time in the S9 Mix was measured by HPLC. The test substance was dissolved in dimethyl sulfoxide (Wako Pure Chemical Industry) beforehand. The results are shown as percentage values of the amount of the unchanged substance after 30 minutes based on the amount of the unchanged substance immediately after the addition to S9 Mix, which is taken as 100%. […]

[2] = system: vascular smooth muscle cells; test: Uptake amount of iodine atoms by vascular smooth muscle cells (mixed culture with macrophage); assay type: cell-based; details: liposome PC 50 nmol + PS 50 nmol + compound 75 nmol; cultured at 37° C. under 5% CO2 for 24 hours
Experimental: Dipalmitoyl-PC (Funakoshi, No. 1201-41-0225) and dipalmitoyl-PS (Funakoshi, No. 1201-42-0237) at the ratio shown below were dissolved in chloroform together with each of the iodine compounds of the present invention in an eggplant-shaped flask according to the method described in J. Med. Chem., 25 (12), 1500 (1982) to form a uniform solution. Then, the solvent was evaporated under reduced pressure to form a thin membrane on the bottom of the flask bottom. This thin membrane was dried in vacuum, then added with an appropriate amount of 0.9% physiological saline (Hikari Pharmaceutical, No. 512) and subjected to ultrasonication (No. 3542 probe type oscillator, Branson, 0.1 mW) for 5 minutes to obtain a uniform liposome dispersion. The diameters of the liposomes in the resulting dispersion were measured by using WBC analyzer (A-1042, Nihon Kohden). […] The liposome preparations mentioned below, which were produced by the above method, were each added to a mixed culture system of vascular smooth muscle cells and macrophage described in International Publication WO 01/82977. The cells were cultured at 37° C. under 5% CO2 for 24 hours, and the amounts of the iodine compounds taken up into the vascular smooth muscle cells were each quantified.
In the same manner as in Test Example 1, liposome preparations containing dipalmitoyl-PC (Funakoshi, No. 1201-41-0225) and dipalmitoyl-PS (Funakoshi, No. 1201-42-0237) at the ratio shown below were prepared. […] The liposome preparations produced by the above method were each added to a mixed culture system of vascular smooth muscle cells and macrophage described in International Publication WO 01/82977. The cells were cultured at 37° C. under 5% CO2 for 24 hours, and the amounts of the iodine compounds taken up into the vascular smooth muscle cells were each quantified.

[3] = system: ICR male mice; test: Toxicity test by continuous administration for three days in mice (MTD); assay type: in vivo
Experimental: Six-week old ICR male mice (Charles River Japan) were purchased, and after quarantine for 1 week, acclimatized in a clean animal cage (air-conditioning: HEPA filter of class 1000, room temperature: 20 to 24° C., humidity: 35 to 60%). Then, in order to obtain an MTD value, a liposome preparation was administered from the caudal vein. The liposome preparation was administered by using physiological saline (Hikari Pharmaceutical) or a glucose solution (Otsuka Pharmaceutical) as a solvent. On the basis of the MTD value obtained, the liposome preparation was administered from the caudal vein every three consecutive days in an amount corresponding to ½ of the MTD value (n=3). The symptoms were observed up to 6 hours after each administration, and autopsy was performed after completion of the administration to examine major organs. As a result, no abnormality was recognized. […]

[4] = system: Wistar rats; test: Neurotoxicity test in Wistar rats; assay type: in vivo; set-up: key to Neurotoxicity (+: present, −: absent): +: present; −: absent
Experimental: Six-week old male Wistar rats (Charles River Japan) were purchased, and after quarantine for 1 week, acclimatized in a clean animal cage (air-conditioning: HEPA filter of class 1000, room temperature: 20 to 24° C., humidity: 35 to 60%). […]. The liposome preparation was administered by using physiological saline (Hikari Pharmaceutical) or a glucose solution (Otsuka Pharmaceutical) as a solvent.
In the same manner as in Test Example 4, the neurotoxicity test using a Wistar rat was performed.

[5] = system: arteriosclerotic lesions in rat aortas; test: X-ray radiography of rat arteriosclerotic lesion; assay type: in vivo; details: liposome preparation, 200 mg/kg from the cervical vein
Experimental: According to the method described in Invest. Radiol., 18, 275 (1985), arteriosclerotic lesions were formed in rat aortas. The liposome preparation of 1A-4-1 prepared above was carefully administered to the rats with the formed arteriosclerotic lesions were formed from the cervical vein in an amount of 200 mg/kg.
In the same manner as in Test Example 2, the liposome preparation of 1B-1-3 prepared above was carefully administered from the cervical vein to the rats with the formed arteriosclerotic lesions in an amount of 200 mg/kg.

[6] = J. Med. Chem., 25, 1500 (1982); cited from earlier work
[7] = liposome preparation administered from the caudal vein, ICR male mice
[8] = liposome preparation from the caudal vein, 1/2 of the MTD value, after pentobarbital, observed up to 4 hours

| SMILES | amount of the unchanged substance after 30 minutes based on the amount immediately after the addition to S9 Mix (100%) [1] | MTD [3, 7] [mg/kg] | further results |
| --- | --- | --- | --- |
| CCOCCOCCOCCOC(COC(=O)CCCCCCCCCCOc1c(I)cc(I)cc1I)COC(=O)CCCCCCCCCCOc1c(I)cc(I)cc1I [Compound 1A-7-3] | 1A-7-3: 5% |  | Uptake amount [2]: 41.8 × 10^−3 nmol/μg protein |
| O=C(CCCCCCCCCCOc1c(I)cc(I)cc1I)OCC(COC(=O)CCCCCCCCCCOc1c(I)cc(I)cc1I)OC(=O)COC(CO)CO [Compound 1A-6-9] | 1A-6-9: 13% | 800 |  |
| O=C(CCCCCCCCCCOc1c(I)cc(I)cc1I)OCC(COC(=O)CCCCCCCCCCOc1c(I)cc(I)cc1I)OC(=O)CCCCN1CCOCC1 [Compound 1A-3-3] | 1A-3-3: 64% | 1000 | Neurotoxicity (+: present, −: absent) ([4]; rat, in vivo): (−) |
| CCOCCOCCOCCOC(=O)CCC(=O)OC(COC(=O)CCCCCCCCCCOc1c(I)cc(I)cc1I)COC(=O)CCCCCCCCCCOc1c(I)cc(I)cc1I [Compound 1A-4-5] | 1A-4-5: 38% |  | Neurotoxicity (+: present, −: absent) [4, 8]: (−); MTD ([3]; mouse, in vivo): 800 mg/kg |
| O=C(CCCCCCCCCCOc1c(I)cc(I)cc1I)OCC(COC(=O)CCCCCCCCCCOc1c(I)cc(I)cc1I)OCCO [Compound 1A-7-5] | 1A-7-5: 11% |  | Uptake amount [2]: 36.1 × 10^−3 nmol/μg protein |
| O=C(CCCCCCCCCCOc1c(I)cc(I)cc1I)OCC(COC(=O)CCCCCCCCCCOc1c(I)cc(I)cc1I)OCC(=O)N1CCOCC1 [Compound 1A-5-1] | 1A-5-1: 9% | 800 | Neurotoxicity (+: present, −: absent) ([4]; rat, in vivo): (−) |
| O=C(CCCCCCCCCCOc1c(I)cc(I)cc1I)OCC(COC(=O)CCCCCCCCCCOc1c(I)cc(I)cc1I)OC(=O)CCC(=O)N1CCOCC1 [Compound 1A-4-1] | 1A-4-1: 59% | 1000 | Uptake amount [2]: 31.4 × 10^−3 nmol/μg protein; X-ray radiography images of arteriosclerotic lesions ([5]; ten minutes after the administration): clearly contrasted images of the arteriosclerotic lesions were obtained; Neurotoxicity (+: present, −: absent) ([4]; rat, in vivo): (−) |
| O=C(O)CCC(=O)OC(COC(=O)CCCCCCCCCCOc1c(I)cc(I)cc1I)COC(=O)CCCCCCCCCCOc1c(I)cc(I)cc1I [Compound 1A-4-4] | 1A-4-4: 24% |  | Neurotoxicity (+: present, −: absent) [4, 8]: (−); MTD ([3]; mouse, in vivo): 800 mg/kg |
| CN(C)C(=O)CCC(=O)OC(COC(=O)CCCCCCCCCCOc1c(I)cc(I)cc1I)COC(=O)CCCCCCCCCCOc1c(I)cc(I)cc1I [Compound 1A-4-3] | 1A-4-3: 5% |  |  |
| NC(=O)COC(COC(=O)CCCCCCCCCCOc1c(I)cc(I)cc1I)COC(=O)CCCCCCCCCCOc1c(I)cc(I)cc1I [Compound 1A-5-2] | 1A-5-2: 60% |  |  |
| O=C(CCCCCCCCCCOc1c(I)cc(I)cc1I)OCC(COC(=O)CCCCCCCCCCOc1c(I)cc(I)cc1I)OC(=O)CCN1CCOCC1 [Compound 1A-3-1] | 1A-3-1: 58% |  |  |
| C[N+](C)(C)CCOP(=O)([O-])OC(COC(=O)CCCCCCCCCCOc1c(I)cc(I)cc1I)COC(=O)CCCCCCCCCCOc1c(I)cc(I)cc1I [Compound 1B-1-3] | 1B-1-3: 4% | 2000 | Uptake amount [2]: 59.8 × 10^−3 nmol/μg protein; X-ray radiography images of arteriosclerotic lesions ([5]; one minute after the administration): clearly contrasted images of arteriosclerotic lesions were obtained; Neurotoxicity ([4]; rat, in vivo): no neurotoxicity was observed |
| O=C(CCCCCCCCCCOc1c(I)cc(I)cc1I)OCC(COC(=O)CCCCCCCCCCOc1c(I)cc(I)cc1I)OC(=O)CCCN1CCOCC1 [Compound 1A-3-2] | 1A-3-2: 60% | 800 |  |
| CCC(Cc1c(I)cc(I)c(N)c1I)C(=O)OC1CCC2(C)C(=CCC3C2CCC2(C)C(C(C)CCCC(C)C)CCC32)C1 (stereo not shown) [Cholesterol iopanoate] |  |  | Accumulation in the liver [6]: known to accumulate in the liver of a living body |
| CN(C)C(=O)COC(COC(=O)CCCCCCCCCCOc1c(I)cc(I)cc1I)COC(=O)CCCCCCCCCCOc1c(I)cc(I)cc1I [Compound 1A-5-3] | 1A-5-3: 52% |  |  |
| CN(C)CC(=O)OC(COC(=O)CCCCCCCCCCOc1c(I)cc(I)cc1I)COC(=O)CCCCCCCCCCOc1c(I)cc(I)cc1I [Compound 1A-6-3] | 1A-6-3: 60% |  |  |
| NC(=O)CCC(=O)OC(COC(=O)CCCCCCCCCCOc1c(I)cc(I)cc1I)COC(=O)CCCCCCCCCCOc1c(I)cc(I)cc1I [Compound 1A-4-2] | 1A-4-2: 10% |  |  |
| O=C(O)COC(COC(=O)CCCCCCCCCCOc1c(I)cc(I)cc1I)COC(=O)CCCCCCCCCCOc1c(I)cc(I)cc1I [Compound 1A-5-4] | 1A-5-4: 20% |  | Neurotoxicity (+: present, −: absent) [4, 8]: (−); MTD ([3]; mouse, in vivo): 800 mg/kg |
| O=C(CCCCCCCCCCOc1c(I)cc(I)cc1I)OCC(COC(=O)CCCCCCCCCCOc1c(I)cc(I)cc1I)OC(=O)CN1CCOCC1 [Compound 1A-1-3] | 1A-1-3: 63% | 800 | Uptake amount [2]: 49.8 × 10^−3 nmol/μg protein; Neurotoxicity (+: present, −: absent) ([4]; rat, in vivo): (−) |
| O=C(CCCCCCCCCCOc1c(I)cc(I)cc1I)OCC(COC(=O)CCCCCCCCCCOc1c(I)cc(I)cc1I)OC(=O)CCCCCN1CCOCC1 [Compound 1A-3-4] | 1A-3-4: 63% | 1000 |  |
